Assay results published in US20240158446A1, “CYCLIC COMPOUND HAVING SELECTIVE INHIBITORY ACTION ON KRAS OVER HRAS AND NRAS” (CHUGAI SEIYAKU KABUSHIKI KAISHA, priority 2021, published 2024).
Like-named read-outs stand apart in the source and are kept apart here. *1 amine or outer side, *2 acyl side, *3 side chain or, on linkers, in order; H or OH if unused. Where a SMILES comes first, the peptide text is derived from it. Bridges are numbered along the chain shown (N, C = ends). [ ]: non-standard residue; d: D form. The star is where a group is joined. hPhe(3-Cl-4-CF3) = N[C@@H](CCc1ccc(C(F)(F)F)c(Cl)c1)C(=O)O; X5 = C=CCN([C@@H](Cc1ccc(C(F)(F)F)cc1)C(=O)[*:2])[*:1]; NPrPhe(4-CF3) = CCCN[C@@H](Cc1ccc(C(F)(F)F)cc1)C(=O)O; 3Oxa8azabicyclo(3.2.1)octane = C1CC2COCC1N2*; NEtPhe(4-Me) = CCN[C@@H](Cc1ccc(C)cc1)C(=O)O; X3 = CCCN([C@H](C(=O)[*:2])C1CCCC1)[*:1]; NMeGly(cPent) = CN[C@H](C(=O)O)C1CCCC1; cisHyp = O=C(O)[C@@H]1C[C@H](O)CN1; Hyp = O=C(O)[C@@H]1C[C@@H](O)CN1; NMeD = CN[C@@H](CC(=O)O)C(=O)O; NMeL = CN[C@@H](CC(C)C)C(=O)O; Oxazolidin(3-yl) = C1CN(*)CO1; Morpholide = C1CN(*)CCO1; NMeA = CN[C@@H](C)C(=O)O; Pyrrolidide = C1CCN(*)C1; Ac5c = NC1(C(=O)O)CCCC1; Aze = O=C(O)[C@@H]1CCN1; Sar = CNCC(=O)O

How the values were obtained:
[1] = target: GDP-bound NRAS wild-type protein (Homo sapiens, UniProt P01111); assay: Binding to NRAS by surface plasmon resonance (SPR), Single Cycle Kinetics; details: SPR, GDP-bound NRAS wild-type protein vs GDP-bound KRAS wild-type protein
GDP-bound NRAS wild-type protein, sequence (P01111 whole entry): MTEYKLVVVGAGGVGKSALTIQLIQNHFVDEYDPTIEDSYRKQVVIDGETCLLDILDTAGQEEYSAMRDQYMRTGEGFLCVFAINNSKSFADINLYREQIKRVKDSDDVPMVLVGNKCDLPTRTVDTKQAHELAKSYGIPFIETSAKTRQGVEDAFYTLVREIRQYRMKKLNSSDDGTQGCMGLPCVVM

[2] = target: GDP-bound HRAS wild-type protein (Homo sapiens, UniProt P01112); assay: Binding to HRAS by surface plasmon resonance (SPR), Single Cycle Kinetics; details: SPR, GDP-bound HRAS wild-type protein vs GDP-bound KRAS wild-type protein
GDP-bound HRAS wild-type protein, sequence (P01112 whole entry): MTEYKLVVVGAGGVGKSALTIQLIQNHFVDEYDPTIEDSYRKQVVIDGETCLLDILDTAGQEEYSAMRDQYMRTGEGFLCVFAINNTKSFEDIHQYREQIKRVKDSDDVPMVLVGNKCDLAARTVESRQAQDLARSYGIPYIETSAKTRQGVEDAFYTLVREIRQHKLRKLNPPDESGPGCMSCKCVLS

[3] = tested on: human lung cancer strain NCI-H441;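 also: cell proliferation inhibition after four days measured by CellTiter-Glo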
[4] = target: GDP-bound KRAS wild-type protein (Homo sapiens, UniProt P01116); assay: Binding to KRAS by surface plasmon resonance (SPR), Single Cycle Kinetics; details: SPR Single Cycle Kinetics, GDP-bound KRAS wild-type protein, 1:1 binding model
GDP-bound KRAS wild-type protein, sequence (P01116 whole entry): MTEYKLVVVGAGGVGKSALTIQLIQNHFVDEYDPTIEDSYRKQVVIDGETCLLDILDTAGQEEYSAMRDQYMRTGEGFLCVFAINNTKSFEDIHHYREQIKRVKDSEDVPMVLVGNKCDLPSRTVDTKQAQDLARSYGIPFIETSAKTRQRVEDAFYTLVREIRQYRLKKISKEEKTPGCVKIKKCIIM

IC50 [3]	Kd ([4]; read-out: KRAS KD)	SMILES	NRAS/KRAS (ratio of KD value for NRAS to KD value for KRAS) [1]	HRAS/KRAS (ratio of KD value for HRAS to KD value for KRAS) [2]	Kd ([4]; KRAS KD (M))
62.7 nM	1.2e-10 M	CC[C@H](C)[C@@H]1NC(=O)[C@H](CC(C)C)N(C)C(=O)C[C@@H](C(=O)N2CCOCC2)N(C)C(=O)[C@H](C2CCCC2)N(C)C(=O)C2(CCCC2)NC(=O)[C@@H]2C[C@@H](O)CN2C(=O)[C@H](CCc2ccc(C(F)(F)F)c(Cl)c2)NC(=O)CN(C)C(=O)[C@H](Cc2ccc(C)cc2)N(CC)C(=O)CN(C)C(=O)CN(C)C1=O [PP0041] ([NMeL]I[Sar][Sar][NEtPhe(4-Me)][Sar][hPhe(3-Cl-4-CF3)][Hyp][Ac5c][NMeGly(cPent)][NMeD]-Morpholide; lactam N-11)	B (a compound having 3 or more and less than 10 is denoted as B)	C (A compound having a KD ratio of 0.1 or more and less than 3 is denoted as C)	
4.8 nM	1.9e-10 M	CCCN1C(=O)[C@@H]2CCN2C(=O)[C@H](C)NC(=O)[C@H]([C@@H](C)CC)NC(=O)[C@H](CC(C)C)N(C)C(=O)C[C@@H](C(=O)N2CCOCC2)N(C)C(=O)[C@H](C2CCCC2)N(C)C(=O)C2(CCCC2)NC(=O)[C@@H]2CCCN2C(=O)[C@H](CCc2ccc(C(F)(F)F)c(Cl)c2)NC(=O)CN(C)C(=O)[C@@H]1Cc1ccc(C(F)(F)F)cc1 [PP0078] ([NMeL]IA[Aze][NPrPhe(4-CF3)][Sar][hPhe(3-Cl-4-CF3)]P[Ac5c][NMeGly(cPent)][NMeD]-Morpholide; lactam N-11)	C (A compound having a KD ratio of 0.1 or more and less than 3 is denoted as C)	B (a compound having 3 or more and less than 10 is denoted as B)	
10.4 nM	2.5e-10 M	C=CCN1C(=O)CN(C)C(=O)CN(C)C(=O)[C@H]([C@@H](C)CC)NC(=O)[C@H](CC(C)C)N(C)C(=O)C[C@@H](C(=O)N2CCOCC2)N(C)C(=O)[C@H](C2CCCC2)N(C)C(=O)C2(CCCC2)NC(=O)[C@@H]2CCCN2C(=O)[C@H](CCc2ccc(C(F)(F)F)c(Cl)c2)NC(=O)CN(C)C(=O)[C@@H]1Cc1ccc(C(F)(F)F)cc1 [PP0128] ([NMeL]I[Sar][Sar][X5][Sar][hPhe(3-Cl-4-CF3)]P[Ac5c][NMeGly(cPent)][NMeD]-Morpholide; lactam N-11)	C (A compound having a KD ratio of 0.1 or more and less than 3 is denoted as C)	C (A compound having a KD ratio of 0.1 or more and less than 3 is denoted as C)	
5.2 nM	1.2e-10 M	CCCN1C(=O)CN(C)C(=O)CN(C)C(=O)[C@H]([C@@H](C)CC)NC(=O)[C@H](CC(C)C)N(C)C(=O)C[C@@H](C(=O)N2CCCC2)N(C)C(=O)[C@H](C2CCCC2)N(C)C(=O)C2(CCCC2)NC(=O)[C@@H]2CCCN2C(=O)[C@H](CCc2ccc(C(F)(F)F)c(Cl)c2)NC(=O)CN(C)C(=O)[C@@H]1Cc1ccc(C(F)(F)F)cc1 [PP0170] ([NMeL]I[Sar][Sar][NPrPhe(4-CF3)][Sar][hPhe(3-Cl-4-CF3)]P[Ac5c][NMeGly(cPent)][NMeD]-Pyrrolidide; lactam N-11)	B (a compound having 3 or more and less than 10 is denoted as B)	B (a compound having 3 or more and less than 10 is denoted as B)	
5.2 nM	1.5e-10 M	CCCN1C(=O)CN(C)C(=O)CN(C)C(=O)[C@H]([C@@H](C)CC)NC(=O)[C@H](CC(C)C)N(C)C(=O)C[C@@H](C(=O)N2CCOC2)N(C)C(=O)[C@H](C2CCCC2)N(C)C(=O)C2(CCCC2)NC(=O)[C@@H]2CCCN2C(=O)[C@H](CCc2ccc(C(F)(F)F)c(Cl)c2)NC(=O)CN(C)C(=O)[C@@H]1Cc1ccc(C(F)(F)F)cc1 [PP0174] ([NMeL]I[Sar][Sar][NPrPhe(4-CF3)][Sar][hPhe(3-Cl-4-CF3)]P[Ac5c][NMeGly(cPent)][NMeD]-{Oxazolidin(3-yl)}; lactam N-11)	B (a compound having 3 or more and less than 10 is denoted as B)	B (a compound having 3 or more and less than 10 is denoted as B)	
7.9 nM	3.5e-11 M	CCCN1C(=O)CN(C)C(=O)CN(C)C(=O)[C@H]([C@@H](C)CC)NC(=O)[C@H](CC(C)C)N(C)C(=O)C[C@@H](C(=O)N2CCOCC2)N(C)C(=O)[C@H](C2CCCC2)N(C)C(=O)C2(CCCC2)NC(=O)[C@@H]2C[C@H](O)CN2C(=O)[C@H](CCc2ccc(C(F)(F)F)c(Cl)c2)NC(=O)CN(C)C(=O)[C@@H]1Cc1ccc(C(F)(F)F)cc1 [PP0240] ([NMeL]I[Sar][Sar][NPrPhe(4-CF3)][Sar][hPhe(3-Cl-4-CF3)][cisHyp][Ac5c][NMeGly(cPent)][NMeD]-Morpholide; lactam N-11)	B (a compound having 3 or more and less than 10 is denoted as B)	C (A compound having a KD ratio of 0.1 or more and less than 3 is denoted as C)	
15.2 nM	2e-10 M	CCCN1C(=O)CN(C)C(=O)CN(C)C(=O)[C@H]([C@@H](C)CC)NC(=O)[C@H](CC(C)C)N(C)C(=O)C[C@@H](C(=O)N2CCOCC2)N(C)C(=O)[C@H](C2CCCC2)N(C)C(=O)C2(CCCC2)NC(=O)CN(C)C(=O)[C@H](CCc2ccc(C(F)(F)F)c(Cl)c2)NC(=O)CN(C)C(=O)[C@@H]1Cc1ccc(C(F)(F)F)cc1 [PP0266] ([NMeL]I[Sar][Sar][NPrPhe(4-CF3)][Sar][hPhe(3-Cl-4-CF3)][Sar][Ac5c][NMeGly(cPent)][NMeD]-Morpholide; lactam N-11)	B (a compound having 3 or more and less than 10 is denoted as B)	C (A compound having a KD ratio of 0.1 or more and less than 3 is denoted as C)	

SMILES	IC50 [3]	Kd ([4]; read-out: KRAS KD)	NRAS/KRAS (ratio of KD value for NRAS to KD value for KRAS) [1]	HRAS/KRAS (ratio of KD value for HRAS to KD value for KRAS) [2]	Kd ([4]; KRAS KD (M))
CCCN1C(=O)[C@@H]2CCN2C(=O)[C@H](C)N(C)C(=O)[C@H]([C@@H](C)CC)NC(=O)[C@H](CC(C)C)N(C)C(=O)C[C@@H](C(=O)N2CCOCC2)N(C)C(=O)[C@H](C2CCCC2)N(C)C(=O)C2(CCCC2)NC(=O)[C@@H]2CCCN2C(=O)[C@H](CCc2ccc(C(F)(F)F)c(Cl)c2)NC(=O)CN(C)C(=O)[C@@H]1C1CCCC1 [PP0054] ([NMeL]I[NMeA][Aze][X3][Sar][hPhe(3-Cl-4-CF3)]P[Ac5c][NMeGly(cPent)][NMeD]-Morpholide; lactam N-11)	82 nM		C (A compound having a KD ratio of 0.1 or more and less than 3 is denoted as C)	C (A compound having a KD ratio of 0.1 or more and less than 3 is denoted as C)	4.5e-09 M
CCCN1C(=O)CN(C)C(=O)CN(C)C(=O)[C@H]([C@@H](C)CC)NC(=O)[C@H](CC(C)C)N(C)C(=O)C[C@@H](C(=O)N2C3CCC2COC3)N(C)C(=O)[C@H](C2CCCC2)N(C)C(=O)C2(CCCC2)NC(=O)[C@@H]2CCCN2C(=O)[C@H](CCc2ccc(C(F)(F)F)c(Cl)c2)NC(=O)CN(C)C(=O)[C@@H]1Cc1ccc(C(F)(F)F)cc1 [PP0173] ([NMeL]I[Sar][Sar][NPrPhe(4-CF3)][Sar][hPhe(3-Cl-4-CF3)]P[Ac5c][NMeGly(cPent)][NMeD]-{3Oxa8azabicyclo(3.2.1)octane}; lactam N-11)	11.6 nM	6.7e-10 M	B (a compound having 3 or more and less than 10 is denoted as B)	C (A compound having a KD ratio of 0.1 or more and less than 3 is denoted as C)	
